ChEMBL document CHEMBL1140273, “Carbonic anhydrase inhibitors: novel sulfonamides incorporating 1,3,5-triazine moieties as inhibitors of the cytosolic and tumour-associated carbonic anhydrase isozymes I, II and IX” (Bioorg Med Chem Lett, 2005)

Molecular target: Carbonic anhydrase 9 (Homo sapiens, UniProt Q16790)

SMILES | Ki [nM]
CCN(CC)c1nc(NCc2ccc(S(N)(=O)=O)cc2)nc(N(CC)CC)n1 | 7.5
NS(=O)(=O)c1ccc(CCNc2nc(Cl)nc(NCC(=O)O)n2)cc1 | 1
NS(=O)(=O)c1ccc(Nc2nc(Oc3ccccc3)nc(Oc3ccccc3)n2)cc1 | 254
CCCNc1nc(NCCC)nc(Nc2ccc(S(N)(=O)=O)cc2)n1 | 56
CC(C)Nc1nc(NCc2ccc(S(N)(=O)=O)cc2)nc(NC(C)C)n1 | 16
